Values after ≈ are worked out from the molar mass of the structure shown.
Assays:
Parameters in all cases: species or system rhinovirus B14
[1] = Inhibition of human rhinovirus 14 recombinant N-terminal GST-tagged protease 3c expressed in Escherichia coli DH5alpha using LEVLFQGPSK(Fluoro)G as substrate after 1 hr by discontinuous heterogeneous fluorometric assay
[2] = Inhibition of human rhinovirus 14 protease 3c by HPLC analysis
[3] = Inhibition of human rhinovirus 14 recombinant N-terminal GST-tagged protease 3c expressed in Escherichia coli DH5alpha using Staphylococcus superantigen like protein 7-thioredoxin fusion protein as substrate after 1 hr by SDS-PAGE analysis

Row | SMILES | IC50 [1] | IC50 [2] | IC50 [3]
1 | C=CCC1=C(Br)C(=O)c2ccccc2C1=O | 8.8 µM |  | 
2 | CC(=O)CC1=C(Br)C(=O)c2ccccc2C1=O | 62.7 µM |  | 
3 | CC(O)CC1=C(Br)C(=O)c2ccccc2C1=O (configuration not stated) | 92.5 µM |  | 
4 | C[C@H]1CC2=C(C(=O)c3c(O)cc(O)cc3C2=O)[C@H](O)O1 | 53 µM | 13 µg/mL (≈ 47.1 µM) | 14.1 µg/mL
5 | O=C1C=C(Br)C(=O)c2ccccc21 [2-Bromo-1,4-naphthoquinone] | 4.2 µM |  | 
